Tests used:
Assay type in all cases: functional
[1] = Growth inhibition of human HCC2998 cells assessed as cell growth at 10^-8 M after 48 hrs by sulforhodamine B assay; conditions: HCC 2998, 48 h; for growth at 0.01 µM: read-out: Activity; for CC50: read-out: pLC50 (the source's name) (converted); for TGI: read-out: pTGI (converted)
NCI-H522 = test: Growth inhibition of human NCI-H522 cells after 48 hrs by sulforhodamine B assay; conditions: NCI-H522, 48 h; for CC50: read-out: LC50 (the source's name)
COLO 205 [2] = test: Induction of apoptosis in human COLO205 cells assessed as viable cells level at 10 uM after 24 hrs by Annexin V/propidium iodide staining-based fluorescence microscopy
NCI-H460 = test: Growth inhibition of human NCI-H460 cells assessed as cell growth at 10^-7 M after 48 hrs by sulforhodamine B assay; conditions: NCI-H460, 48 h, read-out: Activity
PC-3 [3] = test: Growth inhibition of human PC3 cells assessed as cell growth at 10^-4 M after 48 hrs by sulforhodamine B assay; conditions: PC-3, 48 h, read-out: Activity
COLO 205 [4] = test: Induction of apoptosis in human COLO205 cells assessed as caspase 3/7 activation at 10 uM by FLICA
[5] = Growth inhibition of human OVCAR4 cells assessed as cell growth at 10^-8 M after 48 hrs by sulforhodamine B assay; conditions: OVCAR-4, 48 h; for growth at 0.01 µM: read-out: Activity; for TGI: read-out: pTGI
[6] = Growth inhibition of human SF539 cells assessed as cell growth at 10^-4 M after 48 hrs by sulforhodamine B assay; conditions: SF-539, 48 h, read-out: Activity
SF-268 = test: Growth inhibition of human SF268 cells assessed as cell growth at 10^-4 M after 48 hrs by sulforhodamine B assay; conditions: SF-268, 48 h, read-out: Activity
NCI-H226 = test: Growth inhibition of human NCI-H226 cells assessed as cell growth at 10^-7 M after 48 hrs by sulforhodamine B assay; conditions: NCI-H226, 48 h, read-out: Activity
SR [7] = test: Growth inhibition of human SR cells assessed as cell growth at 10^-7 M after 48 hrs by sulforhodamine B assay; conditions: read-out: Activity
SNB-19 = test: Growth inhibition of human SNB19 cells assessed as cell growth at 10^-6 M after 48 hrs by sulforhodamine B assay; conditions: SNB-19, 48 h, read-out: Activity
A549 = test: Growth inhibition of human A549/ATCC cells assessed as cell growth at 10^-7 M after 48 hrs by sulforhodamine B assay; conditions: A549, 48 h, read-out: Activity
PC-3 [8] = test: Growth inhibition of human PC3 cells assessed as cell growth at 10^-8 M after 48 hrs by sulforhodamine B assay; conditions: PC-3, 48 h; for growth at 0.01 µM: read-out: Activity; for TGI: read-out: pTGI (converted)
HT-29 = test: Growth inhibition of human HT-29 cells assessed as cell growth at 10^-7 M after 48 hrs by sulforhodamine B assay; conditions: HT-29, 48 h, read-out: Activity
HOP-62 [9] = test: Growth inhibition of human HOP62 cells assessed as cell growth at 10^-6 M after 48 hrs by sulforhodamine B assay; conditions: HOP-62, 48 h, read-out: Activity
Malme-3M = test: Growth inhibition of human MALME-3M cells assessed as cell growth at 10^-8 M after 48 hrs by sulforhodamine B assay; conditions: for growth at 0.01 µM: read-out: Activity
HCT-116 = test: Growth inhibition of human HCT116 cells assessed as cell growth at 10^-7 M after 48 hrs by sulforhodamine B assay; conditions: HCT-116, 48 h, read-out: Activity
HOP-62 [10] = test: Growth inhibition of human HOP62 cells assessed as cell growth at 10^-7 M after 48 hrs by sulforhodamine B assay; conditions: HOP-62, 48 h, read-out: Activity
HL-60(TB) = test: Growth inhibition of human HL-60(TB) cells assessed as cell growth at 10^-7 M after 48 hrs by sulforhodamine B assay; conditions: HL-60, 48 h, read-out: Activity
[11] = Growth inhibition of human NCI-ADR-RES cells assessed as cell growth at 10^-4 M after 48 hrs by sulforhodamine B assay; conditions: read-out: Activity
[12] = Growth inhibition of human OVCAR4 cells after 48 hrs by sulforhodamine B assay; conditions: OVCAR-4, 48 h; for CC50: read-out: LC50 (the source's name)
A498 = test: Growth inhibition of human A498 cells assessed as cell growth at 10^-4 M after 48 hrs by sulforhodamine B assay; conditions: A498, 48 h, read-out: Activity
MDA-MB-231 [13] = test: Growth inhibition of human MDA-MB-231 cells assessed as cell growth at 10^-4 M after 48 hrs by sulforhodamine B assay; conditions: MDA-MB-231, 48 h, read-out: Activity
SK-OV-3 = test: Growth inhibition of human SKOV3 cells after 48 hrs by sulforhodamine B assay; conditions: SK-OV-3, 48 h; for CC50: read-out: LC50 (the source's name)
[14] = Growth inhibition of human RXF393 cells assessed as cell growth at 10^-8 M after 48 hrs by sulforhodamine B assay; conditions: RXF 393, 48 h; for growth at 0.01 µM: read-out: Activity; for CC50: read-out: pLC50 (the source's name) (converted); for TGI: read-out: pTGI (converted)
[15] = Growth inhibition of human OVCAR3 cells assessed as cell growth at 10^-4 M after 48 hrs by sulforhodamine B assay; conditions: OVCAR-3, 48 h, read-out: Activity
PC-3 [16] = test: Growth inhibition of human PC3 cells after 48 hrs by sulforhodamine B assay; conditions: PC-3, 48 h; for CC50: read-out: LC50 (the source's name)
U-251 = test: Growth inhibition of human U251 cells assessed as cell growth at 10^-6 M after 48 hrs by sulforhodamine B assay; conditions: U-251, 48 h, read-out: Activity
SK-MEL-28 = test: Growth inhibition of human SK-MEL-28 cells assessed as cell growth at 10^-4 M after 48 hrs by sulforhodamine B assay; conditions: SK-MEL-28, 48 h, read-out: Activity
NCI-H23 = test: Growth inhibition of human NCI-H23 cells assessed as cell growth at 10^-4 M after 48 hrs by sulforhodamine B assay; conditions: NCI-H23, 48 h, read-out: Activity
SR [17] = test: Growth inhibition of human SR cells assessed as cell growth at 10^-6 M after 48 hrs by sulforhodamine B assay; conditions: read-out: Activity
MDA-MB-231 [18] = test: Growth inhibition of human MDA-MB-231 cells assessed as cell growth at 10^-8 M after 48 hrs by sulforhodamine B assay; conditions: MDA-MB-231, 48 h; for growth at 0.01 µM: read-out: Activity; for TGI: read-out: pTGI (converted)
[19] = Growth inhibition of human OVCAR5 cells assessed as cell growth at 10^-6 M after 48 hrs by sulforhodamine B assay; conditions: OVCAR-5, 48 h, read-out: Activity

Cc1ccc(S(=O)(=O)N2C/C(=C\c3cc(F)cc(F)c3)C(=O)/C(=C/c3cc(F)cc(F)c3)C2)cc1
GI50 [1]: 0.603 µM | growth at 0.01 µM [1]: 102% | CC50 [1]: 4.9 µM | TGI [1]: 1.91 µM | GI50 (NCI-H522): 0.316 µM | TGI (NCI-H522): 0.962 µM | CC50 (NCI-H522): 3.85 µM | Activity (COLO 205 [2]): 24% | growth at 0.1 µM (NCI-H460): 104% | growth at 100 µM (PC-3 [3]): -84% | Activity (COLO 205 [4]): 41.5% | GI50 [5]: 0.437 µM | LC50 [5]: 36.3 µM | growth at 0.01 µM [5]: 100% | TGI [5]: 5.25 µM | growth at 100 µM [6]: -94% | growth at 100 µM (SF-268): -88% | growth at 0.1 µM (NCI-H226): 94% | growth at 0.1 µM (SR [7]): 14% | growth at 1 µM (SNB-19): -12% | growth at 0.1 µM (A549): 93% | GI50 (PC-3 [8]): 0.245 µM | LC50 (PC-3 [8]): 9.33 µM | growth at 0.01 µM (PC-3 [8]): 93% | TGI (PC-3 [8]): 0.794 µM | growth at 0.1 µM (HT-29): 91% | growth at 1 µM (HOP-62 [9]): 93% | GI50 (Malme-3M): 0.275 µM | LC50 (Malme-3M): 3.8 µM | growth at 0.01 µM (Malme-3M): 97% | TGI (Malme-3M; read-out: pTGI (converted)): 0.741 µM | growth at 0.1 µM (HCT-116): 89% | growth at 0.1 µM (HOP-62 [10]): 110% | growth at 0.1 µM (HL-60(TB)): 89% | growth at 100 µM [11]: -57% | GI50 [12]: 0.441 µM | TGI [12]: 5.23 µM | CC50 [12]: 36.3 µM | growth at 100 µM (A498): -86% | growth at 100 µM (MDA-MB-231 [13]): -82% | GI50 (SK-OV-3): 1.84 µM | TGI (SK-OV-3): 5.62 µM | CC50 (SK-OV-3): 37.2 µM | GI50 [14]: 0.724 µM | growth at 0.01 µM [14]: 96% | CC50 [14]: 5.13 µM | TGI [14]: 2.14 µM | growth at 100 µM [15]: -98% | GI50 (PC-3 [16]): 0.248 µM | TGI (PC-3 [16]): 0.803 µM | CC50 (PC-3 [16]): 9.28 µM | growth at 1 µM (U-251): -31% | growth at 100 µM (SK-MEL-28): -98% | growth at 100 µM (NCI-H23): -72% | growth at 1 µM (SR [17]): -20% | GI50 (MDA-MB-231 [18]): 0.269 µM | LC50 (MDA-MB-231 [18]): 8.51 µM | growth at 0.01 µM (MDA-MB-231 [18]): 98% | TGI (MDA-MB-231 [18]): 0.776 µM | growth at 1 µM [19]: 51%

O=C1/C(=C/c2ccc(Cl)cc2Cl)CN(S(=O)(=O)c2ccccc2)C/C1=C\c1ccc(Cl)cc1Cl
GI50 [1]: 0.38 µM | growth at 0.01 µM [1]: 102% | CC50 [1]: 4.57 µM | TGI [1]: 1.35 µM | GI50 (NCI-H522): 0.854 µM | TGI (NCI-H522): 2.99 µM | CC50 (NCI-H522): 9.73 µM | Activity (COLO 205 [2]): 29% | growth at 0.1 µM (NCI-H460): 98% | growth at 100 µM (PC-3 [3]): -26% | Activity (COLO 205 [4]): 35.5% | GI50 [5]: 0.282 µM | LC50 [5]: > 100 µM | growth at 0.01 µM [5]: 102% | TGI [5]: > 100 µM | growth at 100 µM [6]: -40% | growth at 100 µM (SF-268): 4% | growth at 0.1 µM (NCI-H226): 97% | growth at 0.1 µM (SR [7]): 70% | growth at 1 µM (SNB-19): 10% | growth at 0.1 µM (A549): 94% | GI50 (PC-3 [8]): 0.288 µM | LC50 (PC-3 [8]): > 100 µM | growth at 0.01 µM (PC-3 [8]): 100% | TGI (PC-3 [8]): 1.02 µM | growth at 0.1 µM (HT-29): 101% | growth at 1 µM (HOP-62 [9]): 5% | GI50 (Malme-3M): 3.24 µM | LC50 (Malme-3M): > 100 µM | growth at 0.01 µM (Malme-3M): 118% | growth at 0.1 µM (HCT-116): 95% | growth at 0.1 µM (HOP-62 [10]): 113% | growth at 0.1 µM (HL-60(TB)): 92% | growth at 100 µM [11]: 21% | GI50 [12]: 0.279 µM | TGI [12]: > 100 µM | CC50 [12]: > 100 µM | growth at 100 µM (A498): -8% | growth at 100 µM (MDA-MB-231 [13]): -49% | GI50 (SK-OV-3): 7.95 µM | TGI (SK-OV-3): > 100 µM | CC50 (SK-OV-3): > 100 µM | GI50 [14]: 1.07 µM | growth at 0.01 µM [14]: 78% | CC50 [14]: 5.5 µM | TGI [14]: 2.4 µM | growth at 100 µM [15]: -65% | GI50 (PC-3 [16]): 0.291 µM | TGI (PC-3 [16]): 1.03 µM | CC50 (PC-3 [16]): > 100 µM | growth at 1 µM (U-251): -64% | growth at 100 µM (SK-MEL-28): 42% | growth at 100 µM (NCI-H23): -28% | growth at 1 µM (SR [17]): -5% | GI50 (MDA-MB-231 [18]): 0.468 µM | growth at 0.01 µM (MDA-MB-231 [18]): 102% | TGI (MDA-MB-231 [18]): 2.14 µM | growth at 1 µM [19]: 80%

From ChEMBL document CHEMBL3217615, “Novel 3,5-bis(arylidiene)-4-piperidone based monocarbonyl analogs of curcumin: anticancer activity evaluation and mode of action study” (2014)
